These results are taken from patent US10111842B2, “Eutectic solvents and uses thereof” (UNIVERSITY OF OSLO, priority 2014, dated 2018).

Like-named read-outs stand apart in the source and are kept apart here.

Assay [1] relates to C. albicans (ATCC CRM-10231). Nature of the assay: Antifungal toxicity studies, blue light 27 J/cm^2 or dark (Example 8). Type of assay: cell-based, Candida albicans. Here is the method: Briefly, the components of each NADES (see Table 13) were mixed and dissolved in a round flask with 50 ml of warm water ( 50° C.) before evaporation of the solvent at 45° C. for 15 min with a rotatory evaporator. The pure […] 35 and NADES 39 were mixed undiluted or after dilution 1:50 with phosphate buffered saline (PBS, Lonza, Verviers, Belgium) with the yeast suspension (1:1) in the toxicity studies. […] The concentrations of the excipients were the same as in the respective NADES after evaporation of unbound water. The solutions were diluted totally 1:1 or 1:100 with PBS and yeast suspension in the toxicity studies. […] The overnight cultures were centrifuged (4000 g, 22° C., 10 min), the medium replaced and diluted with PBS to OD600 0.1.

In assay [2] the test system is S. epidermidis (ATCC 35984). As to the kind of experiment: Phototoxicity studies, blue light 9.5 J/cm^2 or dark (Example 7). Type of assay: cell-based, Staphylococcus epidermidis. Here is the method: (§1) The overnight cultures were centrifuged (4000 g, 22° C., 10 min), the medium replaced and diluted with PBS to OD600 0.03. The bacterial suspensions were mixed 1:1 with the samples described in the previous paragraph. A volume of 200 μl from each sample was transferred to the first and seventh well on each row on a 96 well plate (Nunclon sterile 96 well plate with lid, Thermo Fischer Scientific, Waltham, Mass.). Two identical plates were made each time, one for light treatment and one for dark controls. The plates containing E. faecalis or S. aureus samples were incubated for 10 min (37° C.), irradiated with blue light for 10 min (corresponding to 9.5 J/cm^2±10%) and incubated again for 10 min (37° C.). The plates containing E. coli samples were incubated for 30 min (37° C.), irradiated with blue light for 30 min (corresponding to 27 J/cm^2±10%) and incubated again for 30 min (37° C.). The plates containing the dark controls were treated similarly, but covered with aluminium foil during the irradiation period and placed beside the irradiation chamber. […] After treatment, the samples were diluted according to the 6×6 drop plate procedure, modified to 4×4 (each treatment was performed with four parallels). A volume of 15 μl from each dilution was then plated onto TSB agar plates, left to dry for a few minutes and incubated overnight (37° C.). Viable colony forming units (CFU)/ml were calculated by counting the CFUs, multiplying with the dilution factor and dividing by the application volume.
(§2) The concentrations were adjusted give a final concentration of 1-20 nM porphyrin in the bacterial suspension after dilution with PBS (see Table 9). Aqueous solutions of 2.7 M citric acid, 2.3 M xylitol, 2.5 M sucrose, 5 M choline chloride and pure NADES, respectively, were used to investigate the toxicity of the individual compounds and NADES without a photosensitiser. The concentrations of the excipients were the same as in the respective NADES after evaporation of unbound water. The solutions were diluted totally 1:200 (or more) in the bacterial studies.
(§3) The treatments were performed with four parallels.
(§4) Gram-positive bacteria are generally considered to be more susceptible to photodynamic therapy than Gram-negative bacteria. Therefore, S. epidermidis was incubated for 10 min (37° C.), irradiated with blue light for 10 min (9.5 J/cm^2) and incubated again for 10 min while K. pneumoniae and P. aeruginosa were incubated for 30 min (37° C.), irradiated with blue light for 30 min (27 J/cm^2) and incubated again for 30 min.

For assay [3], the system named is P. aeruginosa (ATCC 9027). Nature of the assay: Phototoxicity studies, blue light 27 J/cm^2 or dark (Example 7). Type of assay: cell-based, Pseudomonas aeruginosa. Here is the method:
as §1, §2, §3, §4

The subject of assay [4] is K. pneumoniae (ATCC 31844). The assay is described as above. It is filed as cell-based, Klebsiella pneumoniae. As to conditions: ±SD, n = 4. Here is the method:
as §1, §2, §3, §4

Assay [5] deals with Escherichia coli (ATCC 25922). As to the kind of experiment: Bacterial studies, blue light 27 J/cm^2 or dark, drop plate CFU (Examples 4-6). The settings on record: for surviving colony forming units / surviving colony forming units per ml: E. coli. Type of assay: cell-based. Here is the method: (§5) Briefly, the components were mixed and dissolved in warm water (˜50° C.) before evaporation of the solvent at 45° C. for 15 min with a rotatory evaporator. The resulting NADES were transferred to polypropylene tubes with a tight cap. The individual components of each NADES were also prepared as solutions in MilliQ water in a concentration similar to the concentration in the final NADES preparation. All samples were diluted 1:1 with bacterial suspension (OD600 0.03) or 1:50, 1:100 and 1:200 with phosphate buffered saline (PBS, pH 7.4, Lonza, Verviers, Belgium) prior to dilution 1:1 with the bacterial suspension immediately before the bacterial studies.
as §1
(§6) Briefly, the components of each NADES (see Table 7) were mixed and dissolved in a round flask with 50 ml of warm water (˜50° C.) before evaporation of the solvent at 45° C. for 15 min with a rotatory evaporator. TMAP (Frontier Scientific, Inc., Logan, Utah, USA) was then added to each NADES. […] The final concentration of TMAP was 1 nM. Samples of TMAP were also prepared in purified water (MilliQ) to be 1 nM after dilution 1:200 with PBS (pH 7.4, Lonza, Verviers, Belgium) or with a 6.8 mM citric acid solution (pH ˜4) and bacterial suspension.
(§7) TCPP (Frontier Scientific, Inc., Logan, Utah, USA) was added to each NADES. […] The final TCPP concentrations were 0.5 nM-1 μM. Samples of TCPP were also prepared in ethanol to be 1 nM-1 μM after dilution 1:200 with PBS (pH 7.4, Lonza, Verviers, Belgium) or with a 6.8 mM citric acid solution (pH ˜4) and bacterial suspension.

Assay [6] relates to Enterococcus faecalis (ATCC 19433). Nature of the assay: Bacterial studies, blue light 9.5 J/cm^2 or dark, drop plate CFU (Examples 4-6). It is filed as cell-based. Here is the method:
as §5, §1, §6, §7

Assay [7] relates to Staphylococcus aureus (strain Newman). The assay is described as above. Type of assay: cell-based. Here is the method:
as §5, §1, §6, §7

Where [8] appears, read: 2.1 M fructose, […] xylitol, […] sucrose, 5 M choline chloride diluted 1:1 or 1:100, dark or light, p>0.05.
Where [9] appears, read: Dilution 1:200, blue light, ±SD, n = 4.
Setting [10] is: Dilution 1:200, no irradiation, ±SD, n = 4.
The mark [11] stands for this setting: 1 nM TMAP in the citric acid solution, light.
Where [12] appears, read: 1 nM TMAP in the diluted NADES 14, light.

For the molecule `OC[C@H]1O[C@@](CO)(O[C@H]2O[C@H](CO)[C@@H](O)[C@H](O)[C@H]2O)[C@@H](O)[C@@H]1O` [Sucrose], the “reduction in viable C. albicans” value in assay [1] (setting [8]) is given as “No significant reduction”. In assay [2] (setting [9]), the “% survival (9.5 J/cm^2)” value came to 134 ± 14%. Besides, the “% survival (dark)” value stood at 113 ± 5% in assay [2] (setting [10]); 204 ± 22% in assay [3] (setting [10]); 124 ± 9% in assay [4] (Dilution 1:200, no irradiation). The “% survival (27 J/cm^2)” value stood at 98 ± 19% in assay [3] (setting [9]) and 84 ± 18% in assay [4] (Dilution 1:200, blue light).
Turning to “tetra-(4-trimethylanilinum)-porphine tetrachloride [TMAP]”, in assay [5] (1 nM TMAP in NADES 35, dilution 1:800 with PBS), the “viable E. coli after photodynamic treatment” value is given as “no viable”. For the same molecule, the “phototoxicity to E. coli” value is “not enough to make this porphyrin significantly phototoxic” in assay [5] (1 nM TMAP in PBS, p>0.05); “not enough to make this porphyrin significantly phototoxic” in assay [5] (1 nM TMAP in neutral NADES 26 (1:200), p>0.05); “not enough to make this porphyrin significantly phototoxic” in assay [5] (1 nM TMAP in neutral NADES 39 (1:100), p>0.05). The “surviving colony forming units” value in assay [5] (setting [11]) and in assay [5] (setting [12]) was 0.2% in each case. In addition, the “surviving colony forming units per ml” value in assay [5] (setting [11]) and in assay [5] (setting [12]) was 10 000 colony forming units per ml in each case. Also, the “toxicity to C. albicans” value in assay [1] was “not toxic”. Besides, the “photoinactivation of S. epidermidis” value in assay [2] is reported as “did not result in complete photoinactivation”. Further, the “phototoxicity to P. aeruginosa” value in assay [3] (1 nM or 5 nM TMAP in PBS) was “not phototoxic”. Also, in assay [6] (1 nM TMAP in NADES 14 (final dilution 1:400), E. faecalis), the “increase of phototoxicity compared to the citric acid solution” value stood at 35 times.
Consider `O=C(O)CC(O)C(=O)O` (racemic) [Malic acid, DL-malic acid], for which the “toxicity to E. coli” value in assay [5] (2.1 M solution, 1:1 dilution and 1:100 dilution) is “highly toxic”. In addition, the “toxicity / eradication of S. aureus” value in assay [7] (dilution 1:1 with bacterial suspension) is reported as “toxic”. The “toxicity to S. aureus” value in assay [7] (dilution 1:100) is on record as “not toxic”. The “photoinactivation of E. faecalis” value in assay [6] (dilution 1:1 and 1:100 with PBS, blue light) was “complete photoinactivation”.
For the molecule `O=C(O)/C=C\C(=O)O` [Maleic acid], the “toxicity to E. coli” value in assay [5] (3.1 M solution, even at dilution 1:400) is given as “highly toxic”. Further, the “toxicity to S. aureus” value in assay [7] (dilution 1:400) was “no longer toxic”. In assay [7] (dilution ratios 1:1 up to 1:200, total treatment 30 min), the “eradication of S. aureus” value is recorded as “complete eradication”. Further, the “eradication of E. faecalis” value in assay [6] (dilutions 1:1 to 1:400 with PBS (maleic acid 3.1 M before dilution)) is reported as “complete eradication”.
Take `O=C(CO)[C@@H](O)[C@H](O)[C@H](O)CO` [fructose, D-(−)-fructose]: in assay [1] (setting [8]), the “reduction in viable C. albicans” value is recorded as “No significant reduction”. The “toxicity of individual NADES component to E. faecalis” value in assay [6] is “not toxic”.
Regarding tetra-(4-carboxyphenyl)-porphine [TCPP], the “phototoxicity to E. coli” value in assay [5] (1 nM TCPP) and in assay [5] (40 nM TCPP in pure PBS) was “not phototoxic” each time. The “photoinactivation of E. coli” value in assay [5] (0.6 μM TCPP in NADES 40) is “complete photoinactivation”. Besides, in assay [5] (0.6 μM TCPP in citric acid solution, light), the “surviving colony forming units per ml” value is 20 000 colony forming units per ml. Further, in assay [7] (1 nM TCPP in NADES 3, light), the “viable S. aureus after treatment” value was “no viable bacteria detected”. In addition, in assay [7] (1 nM TCPP in pure PBS), the “phototoxicity to S. aureus” value was “killed half of the viable bacteria”. The “photoinactivation of S. aureus” value in assay [7] (TCPP up to 1 μM in PBS) and in assay [7] (TCPP up to 1 μM in pH-neutral NADES 26) was “did not result in complete photoinactivation” each time. The “eradication of E. faecalis after photodynamic treatment” value in assay [6] (1 nM TCPP in acidic NADES 3), in assay [6] (1 nM TCPP in acidic NADES 14), in assay [6] (1 nM TCPP in acidic NADES 40) and in assay [6] (1 nM TCPP in citric acid solution) was “almost complete eradication” each time. In addition, in assay [6] (1 nM TCPP in pure PBS), the “phototoxicity to E. faecalis” value was “not very phototoxic”. Moreover, the “eradication of E. faecalis after light treatment” value in assay [6] (1 μM TCPP in neutral NADES 26) is listed as “complete eradication”. Besides, the “surviving colony forming units” value in assay [6] (1 μM TCPP in pure PBS, light, E. faecalis) is “approximately 300 colony forming units”.
With `C[N+](C)(C)CCO.[Cl-]` [Choline chloride], in assay [5], the “toxicity of NADES 26 components to E. coli” value is given as “non-toxic”. Moreover, the “reduction in viable C. albicans” value in assay [1] is recorded as “No significant reduction”. In assay [2], the “% survival (9.5 J/cm^2)” value came to 124 ± 7% and the “% survival (dark)” value is 104 ± 12%. Besides, the “toxicity of individual NADES component to E. faecalis” value in assay [6] is given as “not toxic”.
